Assay results taken from US20220280594A1, “APPLICATION OF POLYPEPTIDE OR DERIVATIVE THEREOF” (CHENGDU HUITAI BIOMEDICINE CO., LTD., priority 2019, published 2022).

Tests used:
Assay type in all cases: cell-based
[1] = tested on: human thyroid cancer cells (FRO); test: scratch assay, migration of FRO cells; details: 10 μM, 48 hours, control group 60.34 ± 8.32
Summary of the method: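 FRO monolayers were scratched, washed, and cultured 48 h in 2% FBS medium with polypeptide derivatives at 10 μM or PBS control, three wells per group. Migration rate (%) = (original − current scratch width)/original width × 100, measured from images.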

[2] = tested on: human lung squamous carcinoma cells (NCI-H226); test: scratch assay, migration of NCI-H226 cells; details: NCI-H226, 10 μM, 48 hours; control group 65.31 ± 3.19
Summary of the method: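 A straight scratch was made in confluent NCI-H226 monolayers (1-2×10^5 cells/well). Cells were then kept 48 h in 2% FBS medium with 10 μM polypeptide or PBS control, triplicate wells. Migration rate (%) = (original − current scratch width)/original width ×100, from imaged scratch widths.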

[3] = tested on: human liver adenocarcinoma cells (SK-HEP-1); test: transwell migration assay, SK-HEP-1 cells; details: SK-HEP-1 transwell migration, 10 μM, 24 hours; control group 1 782 ± 108, control group 2 768 ± 86
Summary of the method: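 SK-HEP-1 cells in serum-free medium seeded in upper transwell chamber (2-3×10^5 cells/mL) over complete medium; after 4-5 h at 37 °C, 5% CO2, peptide added at 10 μM final in upper chamber. After 24 h, migrated cells fixed in methanol, crystal-violet stained, imaged and counted.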

[4] = tested on: human lung cancer cells (95D); test: scratch assay, migration of 95D cells; details: 10 μM, 48 hours, control group 55.3 ± 3.19
Summary of the method: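 Confluent 95D monolayers were scratched, washed with PBS and cultured 48 h in 2% FBS medium containing peptide (10 μM) or PBS control, in triplicate wells. Scratch width was measured on images; migration rate (%) = (original width − current width)/original width × 100.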

[5] = tested on: human prostate cancer cells (22RV1); test: scratch assay, migration of 22RV1 cells; details: 22RV1, 10 μM, 48 hours; control group 25.41 ± 5.01
Summary of the method: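 22RV1 monolayers (seeded 1-2×10^5 cells/well) were scratched, washed, then given 2% FBS medium with 10 μM polypeptide or PBS, triplicate wells, for 48 h. Migration rate (%) = (original − current scratch width)/original width ×100, from ≥3 images per well.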

[6] = tested on: human breast cancer cells (MDA-MB-231); test: scratch assay, migration of MDA-MB-231 cells; details: MDA-MB-231, 10 μM, 48 hours; control group 36.19 ± 5.15
Summary of the method: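 MDA-MB-231 monolayers (1-2×10^5 cells/well) were scratched, then kept 48 h in medium with 2% FBS containing polypeptide at 10 μM, with a PBS control, in triplicate wells. Migration rate (%) was taken from scratch width: (original − current)/original ×100.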

[7] = tested on: human pancreatic cancer cells (PANC-1); test: scratch assay, migration of PANC-1 cells; details: PANC-1, 10 μM, 48 hours; control group 66.65 ± 3.37
Summary of the method: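 PANC-1 monolayers were scratched, then cultured for 48 h with 10 μM test compound in 2% FBS medium, in three parallel wells per group against a PBS control. Migration rate (%) was calculated as (original minus current scratch width) / original width × 100, from imaged wells.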

[8] = tested on: human pancreatic cancer cells (PANC-1); test: transwell migration assay, PANC-1 cells; details: PANC-1 transwell migration, 10 μM, 24 hours; control group 360 ± 60
Summary of the method: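 Serum-free PANC-1 cells placed in the upper transwell chamber with complete medium below; after 4-5 h, peptide added to the upper chamber at a final 10 μM. Migration ran 24 h at 37 °C; cells on the membrane underside were methanol-fixed, crystal violet-stained and counted by microscopy.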

[9] = tested on: human colon cancer cells (HCT-116); test: scratch assay, migration of HCT-116 cells; details: HCT-116, 10 μM, 48 hours; control group 47.78 ± 6.07
Summary of the method: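 Confluent HCT-116 monolayers were scratched, washed and cultured 48 h in 2% FBS medium with peptide at 10 μM versus PBS control, triplicate wells. Migration rate (%) = (original minus current scratch width)/original width × 100, from at least 3 images per well.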

[10] = tested on: human pharyngeal squamous-cell carcinoma cells (Fadu); test: scratch assay, migration of Fadu cells; details: 10 μM, 48 hours, control group 28.76 ± 4.08
Summary of the method: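 Confluent Fadu monolayers scratched, then cultured 48 h with 10 μM polypeptide in medium with 2% FBS; PBS control, triplicate wells. Migration rate (%) = (original − current scratch width)/original width × 100, from ≥3 images per well.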

[11] = tested on: human non-small cell lung cancer cells (A549); test: scratch assay, migration of A549 cells; details: A549, 10 μM, 48 hours; control group 75.31 ± 8.19
Summary of the method: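 Confluent A549 monolayers in 24-well plates were scratched, washed with PBS, then cultured 48 h in 2% FBS medium with peptide at 10 μM or PBS control, triplicate wells. Scratch width measured from images; migration rate (%) = (original − current width)/original width × 100.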

N19: SEQ ID NO: 1 with deletion of positions 1-5 and 15-18 and addition of two amino acids at the carboxyl terminal (LAKENVTQDRC)
Migration rate (%) (mean ± SD, P) [1]: 25.59 ± 4.08,** %
Migration rate (%) (mean ± SD, P) [2]: 16.80 ± 8.02,*** %
Number of cells (mean ± SD, P), migrated cells [3]: 82 ± 6,****
Migration rate (%) (mean ± SD, P) [4]: 42.04 ± 5.90,* %
Migration rate (%) (mean ± SD, P) [5]: 5.36 ± 1.6,** %
Migration rate (%) (mean ± SD, P) [6]: 15.23 ± 3.54,* %
Migration rate (%) (mean ± SD, P) [7]: 19.76 ± 7.14,*** %
Number of cells (mean ± SD, P), migrated cells [8]: 238 ± 27,*
Migration rate (%) (mean ± SD, P) [9]: 9.80 ± 2.62,*** %
Migration rate (%) (mean ± SD, P) [10]: 17.23 ± 3.53,* %
Migration rate (%) (mean ± SD, P) [11]: 53.74 ± 5.46,* %

N20: SEQ ID NO: 1 with addition of one amino acid at the amino terminal and deletion of position 18 (RYRVRFLAKENVTQDAED)
Migration rate (%) (mean ± SD, P) [1]: 24.03 ± 8.61,* %
Migration rate (%) (mean ± SD, P) [2]: 19.54 ± 6.51,*** %
Number of cells (mean ± SD, P), migrated cells [3]: 299 ± 35,****
Migration rate (%) (mean ± SD, P) [4]: 43.15 ± 5.46,* %
Migration rate (%) (mean ± SD, P) [5]: 4.88 ± 1.48,** %
Migration rate (%) (mean ± SD, P) [6]: 20.18 ± 3.38,* %
Migration rate (%) (mean ± SD, P) [7]: 41.56 ± 6.68,* %
Number of cells (mean ± SD, P), migrated cells [8]: 244 ± 23,*
Migration rate (%) (mean ± SD, P) [9]: 8.17 ± 1.07,*** %
Migration rate (%) (mean ± SD, P) [10]: 15.21 ± 4.90,* %
Migration rate (%) (mean ± SD, P) [11]: 55.77 ± 5.06,* %

N21: SEQ ID NO: 1 with deletion of positions 1-5 and 15-18 and addition of one amino acid at the amino terminal (SLAKENVTQD)
Migration rate (%) (mean ± SD, P) [1]: 30.45 ± 4.94,* %
Migration rate (%) (mean ± SD, P) [2]: 13.58 ± 6.67,*** %
Number of cells (mean ± SD, P), migrated cells [3]: 34 ± 7,****
Migration rate (%) (mean ± SD, P) [4]: 40.02 ± 4.20,** %
Migration rate (%) (mean ± SD, P) [5]: 12.79 ± 3.06,* %
Migration rate (%) (mean ± SD, P) [6]: 19.95 ± 5.47,* %
Migration rate (%) (mean ± SD, P) [7]: 10.54 ± 9.03,*** %
Number of cells (mean ± SD, P), migrated cells [8]: 216 ± 12,***
Migration rate (%) (mean ± SD, P) [9]: 12.85 ± 3.12,*** %
Migration rate (%) (mean ± SD, P) [10]: 16.87 ± 6.77,* %
Migration rate (%) (mean ± SD, P) [11]: 31.06 ± 4.94,** %

N22: SEQ ID NO: 1 with substitution A7R, deletion of three amino acids at the amino terminal and of positions 15-18 (RFLRKENVTQD)
Migration rate (%) (mean ± SD, P) [1]: 42.34 ± 4.98,* %
Migration rate (%) (mean ± SD, P) [2]: 18.69 ± 5.25,*** %
Number of cells (mean ± SD, P), migrated cells [3]: 42 ± 17,****
Migration rate (%) (mean ± SD, P) [4]: 38.35 ± 5.04,** %
Migration rate (%) (mean ± SD, P) [5]: 6.10 ± 2.72,** %
Migration rate (%) (mean ± SD, P) [6]: 16.94 ± 3.17,* %
Migration rate (%) (mean ± SD, P) [7]: 11.44 ± 8.52,*** %
Number of cells (mean ± SD, P), migrated cells [8]: 200 ± 18,***
Migration rate (%) (mean ± SD, P) [9]: 7.78 ± 3.07,*** %
Migration rate (%) (mean ± SD, P) [10]: 15.11 ± 4.99,* %
Migration rate (%) (mean ± SD, P) [11]: 33.59 ± 5.62,** %

N23: SEQ ID NO: 1 with substitution A7R, deletion of position 11 and of positions 15-18 (YRVRFLRKENTQDAED)
Migration rate (%) (mean ± SD, P) [1]: 34.39 ± 4.10,* %
Migration rate (%) (mean ± SD, P) [2]: 13.24 ± 8.19,*** %
Number of cells (mean ± SD, P), migrated cells [3]: 276 ± 24,****
Migration rate (%) (mean ± SD, P) [4]: 30.38 ± 4.68,** %
Migration rate (%) (mean ± SD, P) [5]: 5.7 ± 3.23,** %
Migration rate (%) (mean ± SD, P) [6]: 14.39 ± 2.33,** %
Migration rate (%) (mean ± SD, P) [7]: 14.16 ± 8.36,*** %
Number of cells (mean ± SD, P), migrated cells [8]: 200 ± 14,***
Migration rate (%) (mean ± SD, P) [9]: 13.08 ± 2.64,*** %
Migration rate (%) (mean ± SD, P) [10]: 16.93 ± 3.67,* %
Migration rate (%) (mean ± SD, P) [11]: 26.03 ± 4.21,*** %

N24: SEQ ID NO: 1 with substitution A7R, deletion of positions 1-2 and of position 18 (VRFLRKENVTQDAED)
Migration rate (%) (mean ± SD, P) [1]: 16.54 ± 3.19,** %
Migration rate (%) (mean ± SD, P) [2]: 15.74 ± 8.70,*** %
Number of cells (mean ± SD, P), migrated cells [3]: 265 ± 24,****
Migration rate (%) (mean ± SD, P) [4]: 35.78 ± 4.79,** %
Migration rate (%) (mean ± SD, P) [5]: 8.44 ± 1.63,** %
Migration rate (%) (mean ± SD, P) [6]: 20.97 ± 3.37,* %
Migration rate (%) (mean ± SD, P) [7]: 13.99 ± 7.57,*** %
Number of cells (mean ± SD, P), migrated cells [8]: 239 ± 24,*
Migration rate (%) (mean ± SD, P) [9]: 12.14 ± 2.49,*** %
Migration rate (%) (mean ± SD, P) [10]: 14.07 ± 5.12,* %
Migration rate (%) (mean ± SD, P) [11]: 31.05 ± 3.60,** %

N25: SEQ ID NO: 1 with substitution N18R and addition of two amino acids at the carboxyl terminal (YRVRFLAKENVTQDAEDRCT)
Migration rate (%) (mean ± SD, P) [1]: 14.31 ± 2.47,*** %
Migration rate (%) (mean ± SD, P) [2]: 15.03 ± 8.16,*** %
Number of cells (mean ± SD, P), migrated cells [3]: 58 ± 15,****
Migration rate (%) (mean ± SD, P) [4]: 40.70 ± 3.25,** %
Migration rate (%) (mean ± SD, P) [5]: 13.02 ± 2.27,* %
Migration rate (%) (mean ± SD, P) [6]: 12.93 ± 4.38,** %
Migration rate (%) (mean ± SD, P) [7]: 25.36 ± 7.32,*** %
Number of cells (mean ± SD, P), migrated cells [8]: 217 ± 31,**
Migration rate (%) (mean ± SD, P) [9]: 18.70 ± 2.39,** %
Migration rate (%) (mean ± SD, P) [10]: 9.89 ± 2.47,*** %
Migration rate (%) (mean ± SD, P) [11]: 34.66 ± 7.73,** %
